Data set [1] concerns HCT-116 tumors. In words: PET imaging of HCT-116 tumor-bearing mice. The class given is in vivo, NIH-III nude mice. Particulars: 2 h p.i., n = 3.
Method: Positron emission tomography (PET) and biodistribution experiments were carried out in HCA-7 and HCT-116 tumor-bearing NIH-III nude mice (Charles River Laboratories, Quebec, Canada). Female NIH-III nude mice were housed under standard conditions with free access to standard food and tap water. HCA-7 and HCT-116 cells (5 × 10^6 cells in 100 μL of PBS) were injected into the upper left flank of female NIH-III nude mice (20–24 g). After 14 to 21 days post-inoculation, HCA-7 and HCT-116 tumors reached sizes of approximately 0.6–0.9 cm^3 (0.78 ± 0.15 g, as determined during biodistribution experiments) which were suitable for all in vivo experiments.
General anesthesia of HCA-7 tumor-bearing mice was induced with inhalation of isoflurane in 40 % oxygen/60 % nitrogen (gas flow = 1 mL/min), and mice were subsequently fixed in prone position. The body temperature was kept constant at 37 °C for the entire experiment. […] PET data was collected dynamically over 60 min for up to 4 h using an Inveon® PET/CT scanner (Siemens Preclinical Solutions, Knoxville, TN, USA). […] Mean standardized uptake values [SUVmean = (activity/mL tissue)/(injected activity/body weight), mL/g] were calculated for each region of interest (ROI) with a threshold defined at 50 % of radioactivity uptake. […] All semi-quantified PET data are presented as means ± SEM.
Data set [2] relates to HCA-7 tumors. In words: Biodistribution in HCA-7 tumor-bearing mice. The settings on record: 60 min p.i.; for Biodistribution: Tumor/blood / Biodistribution: Tumor/muscle: ratio, n = 4; for Blocking of [^18F]Pyricoxib tumor uptake (biodistribution studies): celecoxib 100 mg/kg (2 mg per mouse) i.p., HCA-7 tumor. The protocol: Animals were sacrificed at 60 min p.i. The organs and tissues of interest were rapidly excised, weighed, and the radioactivity was determined using the automatic gamma counter (see above). Radioactivity in the selected tissues and organs was calculated as percent injected dose per gram tissue (%ID/g). Data were analyzed as means ± standard deviation (mean ± SD) for n = 4 animals.

A short description of data set [3]: Lipophilicity. The class given is physicochemical.
A short description of data set [4]: Radiometabolite analysis and blood compartment distribution. Format: in vivo, NIH-III nude mice. The protocol: Blood samples from the tail vein (20–40 μL) were collected at 5, 30, 60, and 120 min p.i. Plasma was separated by centrifugation (5 min, 13,000×g) followed by plasma protein precipitation using ice-cold methanol (two parts per one part plasma) and centrifugation (5 min, 13,000×g). Supernatants were analyzed by radio thin-layer chromatography (radio-TLC). TLCs were developed in 1 % MeOH/CH2Cl2 and analyzed using a BAS-5000 reader.

Data set [5] concerns HCA-7 tumors. In words: Dynamic PET imaging of HCA-7 tumor-bearing mice.
Method: Female NIH-III nude mice were housed under standard conditions with free access to standard food and tap water. HCA-7 and HCT-116 cells (5 × 10^6 cells in 100 μL of PBS) were injected into the upper left flank of female NIH-III nude mice (20–24 g). After 14 to 21 days post-inoculation, HCA-7 and HCT-116 tumors reached sizes of approximately 0.6–0.9 cm^3 (0.78 ± 0.15 g, as determined during biodistribution experiments) which were suitable for all in vivo experiments.
General anesthesia of HCA-7 tumor-bearing mice was induced with inhalation of isoflurane in 40 % oxygen/60 % nitrogen (gas flow = 1 mL/min), and mice were subsequently fixed in prone position. The body temperature was kept constant at 37 °C for the entire experiment. […] PET data was collected dynamically over 60 min for up to 4 h using an Inveon® PET/CT scanner (Siemens Preclinical Solutions, Knoxville, TN, USA). For the initial 4-h dynamic PET experiments, 3.5 % HSA was added to the final injection solution, while all other experiments were done without addition of carrier protein HSA. Mean standardized uptake values [SUVmean = (activity/mL tissue)/(injected activity/body weight), mL/g] were calculated for each region of interest (ROI) with a threshold defined at 50 % of radioactivity uptake. The time-activity curves (TACs) were generated from dynamic PET scans. All semi-quantified PET data are presented as means ± SEM.
A transmission scan for attenuation correction was not acquired. The radioactivity of the injection solution in a 0.5 mL syringe was determined with a dose calibrator (Atomlab^TM 300, Biodex Medical Systems, New York, U.S.A.). After the PET emission scan was started the radioactivity was injected with a delay of approximately 15 s. Data acquisition continued for 60 min in 3D list mode. The dynamic list mode data were sorted into sinograms with up to 54 time frames (10x2, 8x5, 6x10, 6x20, 8x60, 10x120, 6x300 s). The frames were reconstructed using maximum a posteriori (MAP) reconstruction modes. The pixel size was 0.085x0.085x0.12 cm, and the resolution in the center field of view was 1.8 mm. Correction for partial volume effects was not performed. The image files were further processed using the ROVER v2.0.51 software (ABX GmbH, Radeberg, Germany). Masks defining 3D regions of interest (ROI) were set and the ROIs were defined by thresholding.
ROIs covered all visible tumor mass of the subcutaneous tumors, and the thresholds were defined by 50% of the maximum radioactivity uptake level for HCA-7 tumor in each animal.
Data set [6] relates to carbonic anhydrase (CA) enzyme family. The settings on record: cited from earlier work.
Data set [7] deals with COX-2. Particulars: read-out: COX-2 inhibition IC50; cited from earlier work.
For data set [8], the system named is HCA-7 cells.
Method: Blocking experiments were performed at 60 min. Radiotracer uptake was stopped by the addition of 1 mL of ice-cold PBS. Then, cells were washed two times with PBS and lysed in 0.4 mL of radioimmunoprecipitation assay buffer (RIPA buffer). Radioactivity of cell lysates was determined with a WIZARD2 Automatic gamma counter (Perkin Elmer; Waltham, MA, USA). Total protein concentration in the samples was determined by the bicinchoninic acid method (BCA; Pierce, Thermo Scientific 23227) using bovine serum albumin (800, 600, 400, 300, 200, 100, 50 μg/mL, blank) as protein standard. Cell uptake data are expressed as percent of measured radioactivity per 1 mg protein (%radioactivity/mg protein).
[9] abbreviates: + 2 mg celecoxib i.p. 60 min prior.

In data set [1], `CS(=O)(=O)c1ccc(-c2cc(C(F)(F)F)nc(NCc3ccc([18F])cc3)n2)cc1` [[^18F]Pyricoxib, N-(4-[^18F]fluorobenzyl)-4-[4-(methylsulfonyl)phenyl]-6-(trifluoro-methyl)pyrimidin-2-amine] displayed an SUV2h tumor of 0.93 ± 0.06. Further, in data set [2] (control, n = 4, mean ± SD), the “Biodistribution: Blood” value is reported as 0.65 ± 0.12 %ID/g, the “Biodistribution: Bone” value is 0.67 ± 0.19 %ID/g, the “Biodistribution: Brain” value is on record as 1.74 ± 0.51 %ID/g and the “Biodistribution: Duodenum” value is 4.59 ± 0.73 %ID/g. Further, in data set [2] (control, n = 4, mean ± SD), the “Biodistribution: Fat” value was 12.67 ± 5.45 %ID/g, the “Biodistribution: HCA-7 tumor” value is 2.12 ± 0.53 %ID/g, the “Biodistribution: Heart” value is listed as 2.52 ± 0.54 %ID/g and the “Biodistribution: Intestine (large)” value is 4.21 ± 1.74 %ID/g. In addition, in data set [2] (control, n = 4, mean ± SD), the “Biodistribution: Intestine (small)” value was 8.08 ± 2.33 %ID/g, the “Biodistribution: Kidneys” value was 4.38 ± 1.01 %ID/g, the “Biodistribution: Liver” value came to 17.13 ± 1.22 %ID/g and the “Biodistribution: Lung” value was 3.75 ± 0.66 %ID/g. Further, in data set [2] (control, n = 4, mean ± SD), the “Biodistribution: Muscle” value stood at 1.42 ± 0.54 %ID/g, the “Biodistribution: Ovaries” value is on record as 8.22 ± 1.27 %ID/g, the “Biodistribution: Pancreas” value stood at 3.92 ± 1.39 %ID/g and the “Biodistribution: Spleen” value came out at 1.24 ± 0.33 %ID/g. Further, the “Biodistribution: Stomach” value in data set [2] (control, n = 4, mean ± SD) was 1.08 ± 0.29 %ID/g. In addition, in data set [2] (setting [9]), the “Biodistribution: Tumor/blood” value stood at 1.09 ± 0.41 and the “Biodistribution: Tumor/muscle” value was found to be 0.70 ± 0.19. Besides, in data set [2] (control), the “Biodistribution: Tumor/blood” value turned out to be 3.39 ± 0.55 and the “Biodistribution: Tumor/muscle” value stood at 1.81 ± 1.04. In addition, the logP in data set [3] was found to be 3.37. In addition, in data set [4] (5 min), the “Blood compartment distribution: blood cells” value is reported as 68%, the “Blood compartment distribution: plasma proteins” value is listed as 2% and the “Blood compartment distribution: plasma supernatant” value is given as 30%. Also, the “Detectable radioactivity in plasma fraction” value in data set [4] (5 min p.i.) is 30%. Also, in data set [4] (30 min), the “Blood compartment distribution: blood cells” value was 54%, the “Blood compartment distribution: plasma proteins” value is given as 4% and the “Blood compartment distribution: plasma supernatant” value was 42%. Moreover, in data set [4] (60 min), the “Blood compartment distribution: blood cells” value came out at 43%, the “Blood compartment distribution: plasma proteins” value was found to be 7% and the “Blood compartment distribution: plasma supernatant” value was found to be 50%. For the same compound, the “Detectable radioactivity in plasma fraction” value in data set [4] (2 h p.i.) is 50%. Besides, the “Percentage of intact [^18F]Pyricoxib” value in data set [4] (blood, 5 min p.i., mice) amounted to 98%. In addition, the “Mean SUV HCA-7 tumor” value in data set [5] (60 min p.i., control animals, no HSA, n = 6) is 0.75 ± 0.12. Also, the “SUV HCA-7 tumor” value in data set [5] (60 min p.i., pre-treated with celecoxib 2 mg i.p. 60 min prior, n = 6) came to 0.57 ± 0.20. This compound returned an SUV2h tumor in data set [5] (HCA-7 tumor, 2 h p.i., n = 3) of 1.09 ± 0.13. Besides, the SUV4h tumor in data set [5] (HCA-7 tumor, 4 h p.i., […] HSA added, n = 7) amounted to 1.19 ± 0.13. Further, the SUV muscle in data set [5] (muscle as reference tissue, 60 min p.i., no HSA, n = 6) came to 0.50 ± 0.11. Besides, the SUV60min muscle in data set [5] (muscle, 60 min p.i., […] HSA added) came to 0.61 ± 0.14. In data set [5] (muscle, 4 h p.i., […] HSA added, n = 7), this compound came in with an SUV4h muscle of 0.53 ± 0.11.

With `Cc1ccc(-c2cc(C(F)(F)F)nn2-c2ccc(S(N)(=O)=O)cc2)cc1` [celecoxib, reference compound], the “Blocking of [^18F]Pyricoxib tumor uptake (biodistribution studies)” value in data set [2] is 50%; in data set [2] (listed as Celecoxib) it was 51%. Further, the “Affinity for carbonic anhydrase” value in data set [6] is on record as “low nanomolar affinity”.

For `CS(=O)(=O)c1ccc(C2=C(c3ccccc3)C(=O)OC2)cc1` [rofecoxib, 4-(4′-methylsulfonylphenyl)-3-phenyl-2-(5H)-furanone], in data set [7], the half-maximal inhibitory concentration (IC50) was 18 to 26 nM. For the same compound, the “Blocking of [^18F]Pyricoxib uptake” value in data set [8] was “blocked uptake of [^18F]Pyricoxib in HCA-7 cells in a concentration-dependent manner”.

A word on the logP: it is a log measure of how a compound divides between an organic and an aqueous phase. Low values mean lower lipophilicity, high ones higher lipophilicity. As usually defined, the IC50 is the concentration that gives 50% inhibition.
